# How the values were obtained:
# Assay type in all cases: functional
# Streptococcus pneumoniae [1] = assay: Antimicrobial activity against beta-lactam resistant Streptococcus pneumoniae clinical isolate by broth dilution method
# Streptococcus pneumoniae [2] = assay: Antimicrobial activity against Streptococcus pneumoniae isolated from non-meningitis patient assessed as percent resistant isolates by CLSI method
# Streptococcus pneumoniae [3] = assay: Antimicrobial activity against Streptococcus pneumoniae isolated from cerebrospinal fluid of patient with bacterial infection by broth dilution method
# Streptococcus pneumoniae [4] = assay: Antimicrobial activity against Streptococcus pneumoniae isolated from non-meningitis patient assessed as percent susceptible isolates by CLSI method
# Streptococcus pneumoniae [5] = assay: Antimicrobial activity against Streptococcus pneumoniae in meningitis patients by broth dilution method
# Streptococcus pneumoniae [6] = assay: Antimicrobial activity against Streptococcus pneumoniae isolated from meningitis patient assessed as percent susceptible isolates by CLSI method
# Streptococcus pneumoniae [7] = assay: Antimicrobial activity against Streptococcus pneumoniae isolated from patient with bacterial infection by broth dilution method
# Streptococcus pneumoniae [8] = assay: Antimicrobial activity against Streptococcus pneumoniae isolated from meningitis patient assessed as percent resistant isolates by CLSI method
# Streptococcus pneumoniae [9] = assay: Antimicrobial activity against Streptococcus pneumoniae in non-meningitis patients by broth dilution method
SMILES,MIC50 (Streptococcus pneumoniae [1]) [mg/L],MIC90 (Streptococcus pneumoniae [1]) [mg/L],Activity (Streptococcus pneumoniae [2]) [%],MIC (Streptococcus pneumoniae [3]) [mg/L],Activity (Streptococcus pneumoniae [4]) [%],MIC (Streptococcus pneumoniae [5]) [mg/L],Activity (Streptococcus pneumoniae [6]) [%],MIC (Streptococcus pneumoniae [7]) [mg/L],Activity (Streptococcus pneumoniae [8]) [%],MIC (Streptococcus pneumoniae [9]) [mg/L],MIC (Streptococcus pneumoniae [1]) [mg/L]
CCCCCCCCCC(=O)N[C@@H](Cc1c[nH]c2ccccc12)C(=O)N[C@H](CC(N)=O)C(=O)N[C@@H](CC(=O)O)C(=O)N[C@@H]1C(=O)NCC(=O)N[C@@H](CCCN)C(=O)N[C@@H](CC(=O)O)C(=O)N[C@H](C)C(=O)N[C@@H](CC(=O)O)C(=O)NCC(=O)N[C@H](CO)C(=O)N[C@@H]([C@H](C)CC(=O)O)C(=O)N[C@@H](CC(=O)c2ccccc2N)C(=O)O[C@@H]1C,0.06,0.06,–,–,–,–,–,–,–,–,–
CO/N=C(\C(=O)N[C@@H]1C(=O)N2C(C(=O)O)=C(COC(C)=O)CS[C@H]12)c1csc(N)n1 [CEFOTAXIME],0.5,1,1.4,1,93.1,1,58.5,≥ 2,6.9,< 2,–
Nc1nc(/C(=N/O)C(=O)N[C@@H]2C(=O)N3C(C(=O)O)=C(/C=C4\CCN([C@@H]5CCNC5)C4=O)CS[C@H]23)ns1 [CEFTOBIPROLE],0.25,0.5,–,–,–,–,–,–,–,–,–
CC[C@H]1OC(=O)[C@H](C)[C@@H](O[C@H]2C[C@@](C)(OC)[C@@H](O)[C@H](C)O2)[C@H](C)[C@@H](O[C@@H]2O[C@H](C)C[C@H](N(C)C)[C@H]2O)[C@](C)(O)C[C@@H](C)C(=O)[C@H](C)[C@@H](O)[C@]1(C)O [ERYTHROMYCIN],> 32,> 32,–,–,–,–,6.9,–,90.9,–,–
CO/N=C1\CN(c2nc3c(cc2F)c(=O)c(C(=O)O)cn3C2CC2)CC1CN (stereo unspecified) [GEMIFLOXACIN],≤ 0.03,≤ 0.03,–,–,–,–,98.9,–,1.1,–,≤ 0.03
C[C@H]1COc2c(N3CCN(C)CC3)c(F)cc3c(=O)c(C(=O)O)cn1c23.C[C@H]1COc2c(N3CCN(C)CC3)c(F)cc3c(=O)c(C(=O)O)cn1c23.O [LEVOFLOXACIN],1,1,–,–,–,–,98.1,–,1.9,–,–
CC1(C)S[C@@H]2[C@H](NC(=O)Cc3ccccc3)C(=O)N2[C@H]1C(=O)O [PENICILLIN G],1,2,–,–,–,≥ 0.1,16.8,≥ 0.1,44.5,≥ 4,–
CN(C)c1cc(NC(=O)CNC(C)(C)C)c(O)c2c1C[C@H]1C[C@H]3[C@H](N(C)C)C(O)=C(C(N)=O)C(=O)[C@@]3(O)C(O)=C1C2=O [TIGECYCLINE],≤ 0.015,0.03,–,–,–,–,–,–,–,–,≤ 0.015
CN[C@H](CC(C)C)C(=O)N[C@H]1C(=O)N[C@@H](CC(N)=O)C(=O)N[C@H]2C(=O)N[C@H]3C(=O)N[C@H](C(=O)N[C@H](C(=O)O)c4cc(O)cc(O)c4-c4cc3ccc4O)[C@H](O)c3ccc(c(Cl)c3)Oc3cc2cc(c3O[C@@H]2O[C@H](CO)[C@@H](O)[C@H](O)[C@H]2O[C@H]2C[C@](C)(N)[C@H](O)[C@H](C)O2)Oc2ccc(cc2Cl)[C@H]1O [VANCOMYCIN],0.25,0.5,–,–,–,–,100,–,0,–,–
